Results on seven molecules are retold here after US20220030868A1, “FUNGICIDAL HALOMETHYL KETONES AND HYDRATES” (FMC CORPORATION, priority 2018, published 2022).

One data set relates to Phakopsora pachyrhizi. As to the kind of experiment: Test A: test suspension sprayed on soybean seedlings one day before inoculation with Phakopsora pachyrhizi spores (Asian soybean rust), visual disease rating. The data set is classed as in vivo. The conditions noted are these: 10 ppm test suspension, 100 = 100% disease control, 0 = no control; for pest or weed control at 10 ppm: Phakopsora pachyrhizi. A digest of the protocol: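 Compound dissolved in acetone (3% of final volume), then suspended at the stated ppm in 50/50 acetone/water with 250 ppm PEG400 surfactant; sprayed to run-off on soybean seedlings, inoculated with P. pachyrhizi spores next day. Held saturated at 22° C for 24 h, then 8 days at 22° C; visual rating as % disease control versus controls.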

Data set [1] deals with Puccinia recondita f. sp. tritici. As to the kind of experiment: Test B: test suspension sprayed on wheat seedlings one day before inoculation with Puccinia recondita f. sp. tritici spores (wheat leaf rust), disease rating. The data set is classed as in vivo. As to conditions: 10 ppm test suspension, 100 = 100% disease control, 0 = no control. The essentials:
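Wheat seedlings were sprayed to run-off with compound suspended in 50/50 acetone/water containing 250 ppm PEG400, then inoculated with P. recondita f. sp. tritici spores the next day. Plants were held 24 h in saturated air at 20 °C, then 6 days in a growth chamber at 20 °C. Disease control was rated 0–100% relative to controls, with some entries run at 50 or 10 ppm.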

For the next data set, the system named is Uncinula necator. Description: Test C: test suspension sprayed on grape seedlings one day before inoculation with Uncinula necator spores (grape powdery mildew), disease rating. The data set is classed as in vivo. As to conditions: 50 ppm test suspension, 100 = 100% disease control. An excerpt:
General protocol for preparing test suspensions for Tests A-C: the test compounds were first dissolved in acetone in an amount equal to 3% of the final volume and then suspended at the desired concentration (in ppm) in acetone and purified water (50/50 mix by volume) containing 250 ppm of the surfactant PEG400 (polyhydric alcohol esters). The resulting test suspensions were then used in Tests A-C. The test solution was sprayed to the point of run-off on grape seedlings. The following day the seedlings were inoculated with a spore suspension of Uncinula necator (the causal agent of grape powdery mildew) and incubated in a growth chamber at 20° C. for 12 days, after which time disease ratings were made. Results for Tests A-C are given in Table A. In the Table, a rating of 100 indicates 100% disease control and a rating of 0 indicates no disease control (relative to the controls). An asterisk “*” or a double asterisk “**” next to the rating value indicates a 50 ppm or 10 ppm test suspension was used, respectively. A dash (-) indicates the compound was not tested.

Broadly, the pest or weed control is the degree to which the test organism was suppressed or injured, in per cent. A higher pest or weed control goes with strong suppression. As a reminder, the melting point is the temperature of the solid-liquid transition.

Marks after values point to notes of the source that are not given here.

`O=C(NCC1CC1)c1csc(Cc2ccc(OCC3(C(F)(F)F)OCCO3)cc2)n1` [Compound 71, N-(cyclopropylmethyl)-2-[[4-[[2-(trifluoromethyl)-1,3-dioxolan-2-yl]methoxy]phenyl]-methyl]thiazole-4-carboxamide] gave a melting point of 88 to 92 °C. Besides, in the data set on Phakopsora pachyrhizi, the pest or weed control at 10 ppm is 100%. Also, in data set [1], the pest or weed control at 10 ppm is 96%.

For `CCO/C(=C\Oc1ccc(Cn2cc(C(=O)OCc3ccccc3)cn2)cc1)C(F)(F)F` [Compound 186, phenylmethyl 1-[[4-[[(1Z)-2-ethoxy-3,3,3-trifluoro-1-propen-1-yl]oxy]phenyl]methyl]-1H-pyrazole-4-carboxylate], the melting point was 63 to 67 °C. In the data set with Phakopsora pachyrhizi, the pest or weed control at 10 ppm came out at 100%. In addition, the pest or weed control at 10 ppm in data set [1] is 0%. For the same molecule, the pest or weed control at 50 ppm with Uncinula necator (Erysiphe necator) worked out at 100%.

Take `CCCOC(=O)c1cnn(Cc2ccc(O/C=C(\OCC)C(F)(F)F)cc2)c1` [compound 217]: the “Test A rating (disease control)” value with Phakopsora pachyrhizi came out at 100%. The “Test B rating (disease control)” value in data set [1] is 0%. Besides, in the data set on Uncinula necator, the “Test C rating (disease control)” value was 100* %.

Regarding `CCO/C(=C\Oc1ccc(Cn2cc(C(=O)OCC(C)C)cn2)cc1)C(F)(F)F` [compound 219], the “Test A rating (disease control)” value with Phakopsora pachyrhizi was 100%. In data set [1], the “Test B rating (disease control)” value came out at 0%. In addition, in the data set on Uncinula necator, the “Test C rating (disease control)” value is recorded as 100* %.

In the case of `CCO/C(=C\Oc1ccc(Cn2cc(C(=O)OCC3CC3)cn2)cc1)C(F)(F)F` [compound 220], the “Test A rating (disease control)” value in the data set with Phakopsora pachyrhizi came to 100%. For the same molecule, the “Test B rating (disease control)” value in data set [1] came to 0%. Also, the “Test C rating (disease control)” value in the data set with Uncinula necator is given as 100* %.

Turning to `CCO/C(=C\Oc1ccc(Cn2cc(C(=O)OCCC#N)cn2)cc1)C(F)(F)F` [compound 245], the “Test A rating (disease control)” value in the data set on Phakopsora pachyrhizi is 100%. Also, the “Test B rating (disease control)” value in data set [1] was determined as 0%. For the same molecule, the “Test C rating (disease control)” value in the data set on Uncinula necator is on record as 98* %.

In the case of `CCO/C(=C\Oc1ccc(Cc2ncc(C(=O)NCC(F)F)s2)cc1)C(F)(F)F` [compound 276], the “Test A rating (disease control)” value in the data set with Phakopsora pachyrhizi was 13%. In data set [1], the “Test B rating (disease control)” value is reported as 0%. Moreover, the “Test C rating (disease control)” value in the data set with Uncinula necator is reported as 100* %.
